According to BindingDB's records for patent US20240101559 (Dana-Farber Cancer Institute, 2024):
pIC50: −log10 of the molar value.

Target: Tyrosine-protein kinase JAK2 (Homo sapiens, UniProt O60674)
Assay: JAK2 Z-Lyte Biochemical Assay
Procedure: The JAK2 Z-Lyte biochemical assay was performed according to manufacturer's instructions (Life Technologies).

Tyrosine-protein kinase JAK2, sequence (O60674 whole entry): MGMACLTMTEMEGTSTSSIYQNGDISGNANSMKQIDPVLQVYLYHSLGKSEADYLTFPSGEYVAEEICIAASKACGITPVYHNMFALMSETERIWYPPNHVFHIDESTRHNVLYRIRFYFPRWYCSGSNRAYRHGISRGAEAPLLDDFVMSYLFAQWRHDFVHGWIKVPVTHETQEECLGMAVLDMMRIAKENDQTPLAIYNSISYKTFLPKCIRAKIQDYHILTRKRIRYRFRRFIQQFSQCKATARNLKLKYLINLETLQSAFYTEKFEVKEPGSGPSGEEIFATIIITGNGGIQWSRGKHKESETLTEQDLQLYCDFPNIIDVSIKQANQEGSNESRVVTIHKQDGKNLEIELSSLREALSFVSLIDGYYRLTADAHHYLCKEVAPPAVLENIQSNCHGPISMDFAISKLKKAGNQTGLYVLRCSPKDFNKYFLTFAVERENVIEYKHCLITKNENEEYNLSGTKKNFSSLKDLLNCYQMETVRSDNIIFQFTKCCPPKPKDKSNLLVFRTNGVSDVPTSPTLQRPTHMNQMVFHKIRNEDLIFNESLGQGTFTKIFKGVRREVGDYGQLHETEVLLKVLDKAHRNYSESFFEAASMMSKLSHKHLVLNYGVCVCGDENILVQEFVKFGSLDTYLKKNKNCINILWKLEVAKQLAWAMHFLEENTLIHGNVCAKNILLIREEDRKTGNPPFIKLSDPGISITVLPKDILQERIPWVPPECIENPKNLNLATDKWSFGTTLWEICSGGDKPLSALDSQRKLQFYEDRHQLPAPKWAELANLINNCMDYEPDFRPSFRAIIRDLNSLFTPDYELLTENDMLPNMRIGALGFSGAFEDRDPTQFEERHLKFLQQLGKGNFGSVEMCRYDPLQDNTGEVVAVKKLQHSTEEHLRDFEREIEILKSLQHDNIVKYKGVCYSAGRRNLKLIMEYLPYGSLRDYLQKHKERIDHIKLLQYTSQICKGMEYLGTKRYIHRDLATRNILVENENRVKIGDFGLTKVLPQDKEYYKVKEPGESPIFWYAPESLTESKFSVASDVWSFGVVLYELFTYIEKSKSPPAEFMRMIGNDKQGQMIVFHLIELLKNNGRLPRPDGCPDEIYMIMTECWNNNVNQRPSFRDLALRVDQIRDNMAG

pIC50: 5.39
Structure (SMILES): CC(=O)Nc1cc(Oc2ccc3nc(Nc4cccc(C(C)(C)C#N)c4)n4c3c2CCC4)ccn1 [US20240101559, Compound I-2]
